The values that follow come from patent publication EP4238581A1, “TARGETED DELIVERY OF OLIGONUCLEOTIDES INTO EUKARYOTIC CELLS USING HYBRID MALTOSE/CYCLODEXTRIN POLYPLEXES” (Technische Universität Dresden e. V., priority 2022, dated 2023).

For this test, the system named is 293T-PSCA cells. Put plainly: Endocytosis inhibitors and GFP transfection by scFv(AM1)-P-BAP hybrid polyplexes. The class given is cell-based. The conditions noted are these: cells transfected with scFv(AM1)-P-BAP hybrid polyplexes loaded with MC encoding GFP; inhibitor concentration not given. The text has this:
To investigate if a receptor-mediated endocytosis contributes to uptake of scFv-P-BAP hybrid polyplexes clathrin-dependent and clathrin-independent endocytosis was blocked using chlorpromazine and filipin III.

With `CCCCC[C@@H](O)[C@H]1C(=O)O[C@H](C)[C@@H](O)/C=C/C=C/C=C/C=C/C=C(\C)[C@@H](O)C[C@H](O)C[C@H](O)C[C@H](O)C[C@H](O)C[C@H](O)C[C@@H]1O` [filipin III], the “fraction of GFP-positive 293T-PSCA cells” value was “significant decrease”. To `CN(C)CCCN1c2ccccc2Sc2ccc(Cl)cc21` [chlorpromazine] belongs “significant decrease”.
